Structures can show the parent of a compound that is named as a salt.
Columns and labels:
M14 = experiment: cells; assay type: functional, cell-based, Homo sapiens
Description: SANGER: Inhibition of human M14 cell growth in a cell viability assay.

SNU-387 = experiment: cells; assay type: functional, cell-based, Homo sapiens
Description: SANGER: Inhibition of human SNU-387 cell growth in a cell viability assay.

SCLC-21H = experiment: cells; assay type: functional, cell-based, Homo sapiens
Description: SANGER: Inhibition of human SCLC-21H cell growth in a cell viability assay.

UACC-893 = experiment: cells; assay type: functional, cell-based, Homo sapiens
Description: SANGER: Inhibition of human UACC-893 cell growth in a cell viability assay.

SR = experiment: cells; assay type: functional, cell-based, Homo sapiens
Description: SANGER: Inhibition of human SR cell growth in a cell viability assay.

LCLC-103H cell line = experiment: cells; assay type: functional, cell-based, Homo sapiens
Description: SANGER: Inhibition of human LCLC-103H cell growth in a cell viability assay.

639-V = experiment: cells; assay type: functional, cell-based, Homo sapiens
Description: SANGER: Inhibition of human 639-V cell growth in a cell viability assay.

SW1088 = experiment: cells; assay type: functional, cell-based, Homo sapiens
Description: SANGER: Inhibition of human SW1088 cell growth in a cell viability assay.

NCI-H2081 = experiment: cells; assay type: functional, cell-based, Homo sapiens
Description: SANGER: Inhibition of human NCI-H2081 cell growth in a cell viability assay.

A204 = experiment: cells; assay type: functional, cell-based, Homo sapiens
Description: SANGER: Inhibition of human A204 cell growth in a cell viability assay.

THP-1 = experiment: cells; assay type: functional, cell-based, Homo sapiens
Description: SANGER: Inhibition of human THP-1 cell growth in a cell viability assay.

K052 = experiment: cells; assay type: functional, cell-based, Homo sapiens
Description: SANGER: Inhibition of human K052 cell growth in a cell viability assay.

HT-29 = experiment: cells; assay type: functional, cell-based, Homo sapiens
Description: SANGER: Inhibition of human HT-29 cell growth in a cell viability assay.

U2OS = experiment: cells; assay type: functional, cell-based, Homo sapiens, U-2-OS
Description: SANGER: Inhibition of human U-2-OS cell growth in a cell viability assay.

SW1417 = experiment: cells; assay type: functional, cell-based, Homo sapiens
Description: SANGER: Inhibition of human SW1417 cell growth in a cell viability assay.

MRK-nu-1 = experiment: cells; assay type: functional, cell-based, Homo sapiens
Description: SANGER: Inhibition of human MRK-nu-1 cell growth in a cell viability assay.

SW756 = experiment: cells; assay type: functional, cell-based, Homo sapiens
Description: SANGER: Inhibition of human SW756 cell growth in a cell viability assay.

NCI-H2342 = experiment: cells; assay type: functional, cell-based, Homo sapiens
Description: SANGER: Inhibition of human NCI-H2342 cell growth in a cell viability assay.

SW13 = experiment: cells; assay type: functional, cell-based, Homo sapiens
Description: SANGER: Inhibition of human SW13 cell growth in a cell viability assay.

GP5d = experiment: cells; assay type: functional, cell-based, Homo sapiens
Description: SANGER: Inhibition of human GP5d cell growth in a cell viability assay.

PC-3 = experiment: cells; assay type: functional, cell-based, Homo sapiens
Description: SANGER: Inhibition of human PC-3 cell growth in a cell viability assay.

KMS-12-PE = experiment: cells; assay type: functional, cell-based, Homo sapiens
Description: SANGER: Inhibition of human KMS-12-PE cell growth in a cell viability assay.

NCI-H28 = experiment: cells; assay type: functional, cell-based, Homo sapiens
Description: SANGER: Inhibition of human NCI-H28 cell growth in a cell viability assay.

COR-L105 = experiment: cells; assay type: functional, cell-based, Homo sapiens
Description: SANGER: Inhibition of human COR-L105 cell growth in a cell viability assay.

NCI-H1793 = experiment: cells; assay type: functional, cell-based, Homo sapiens
Description: SANGER: Inhibition of human NCI-H1793 cell growth in a cell viability assay.

SJRH30 = experiment: cells; assay type: functional, cell-based, Homo sapiens
Description: SANGER: Inhibition of human SJRH30 cell growth in a cell viability assay.

BHY = experiment: cells; assay type: functional, cell-based, Homo sapiens
Description: SANGER: Inhibition of human BHY cell growth in a cell viability assay.

CAL-62 = experiment: cells; assay type: functional, cell-based, Homo sapiens
Description: SANGER: Inhibition of human CAL-62 cell growth in a cell viability assay.

IMR-5 = experiment: cells; assay type: functional, cell-based, Homo sapiens
Description: SANGER: Inhibition of human IMR-5 cell growth in a cell viability assay.

NCI-H2227 = experiment: cells; assay type: functional, cell-based, Homo sapiens
Description: SANGER: Inhibition of human NCI-H2227 cell growth in a cell viability assay.

NCI-H1651 = experiment: cells; assay type: functional, cell-based, Homo sapiens
Description: SANGER: Inhibition of human NCI-H1651 cell growth in a cell viability assay.

LC-1F = experiment: cells; assay type: functional, cell-based, Homo sapiens
Description: SANGER: Inhibition of human LC-1F cell growth in a cell viability assay.

Ca9-22 = experiment: cells; assay type: functional, cell-based, Homo sapiens
Description: SANGER: Inhibition of human Ca9-22 cell growth in a cell viability assay.

CAL-33 = experiment: cells; assay type: functional, cell-based, Homo sapiens
Description: SANGER: Inhibition of human CAL-33 cell growth in a cell viability assay.

8505C = experiment: cells; assay type: functional, cell-based, Homo sapiens
Description: SANGER: Inhibition of human 8505C cell growth in a cell viability assay.

CAL-51 = experiment: cells; assay type: functional, cell-based, Homo sapiens
Description: SANGER: Inhibition of human CAL-51 cell growth in a cell viability assay.

CWR22R = experiment: cells; assay type: functional, cell-based, Homo sapiens
Description: SANGER: Inhibition of human 22RV1 cell growth in a cell viability assay.

COR-L279 = experiment: SANGER: Inhibition of human COR-L279 cell growth in a cell viability assay.; assay type: functional, cell-based
NCI-H345 = experiment: cells; assay type: functional, cell-based, Homo sapiens
Description: SANGER: Inhibition of human NCI-H345 cell growth in a cell viability assay.

NCI-H358 = experiment: cells; assay type: functional, cell-based, Homo sapiens
Description: SANGER: Inhibition of human NCI-H358 cell growth in a cell viability assay.

SK-MEL-30 = experiment: cells; assay type: functional, cell-based, Homo sapiens
Description: SANGER: Inhibition of human SK-MEL-30 cell growth in a cell viability assay.

EB-3 = experiment: cells; assay type: functional, cell-based, Homo sapiens
Description: SANGER: Inhibition of human EB-3 cell growth in a cell viability assay.

HT-3 = experiment: cells; assay type: functional, cell-based, Homo sapiens
Description: SANGER: Inhibition of human HT-3 cell growth in a cell viability assay.

TALL-1 = experiment: cells; assay type: functional, cell-based, Homo sapiens
Description: SANGER: Inhibition of human TALL-1 cell growth in a cell viability assay.

NCI-H661 = experiment: cells; assay type: functional, cell-based, Homo sapiens
Description: SANGER: Inhibition of human NCI-H661 cell growth in a cell viability assay.

## COC1=CC(c2cc3ccccc3[nH]2)=N/C1=C\c1[nH]c(C)cc1C [OBATOCLAX MESYLATE]
M14; Homo sapiens, M14
  IC50: 0.46 µM
SNU-387; Homo sapiens, SNU-387
  IC50: 0.903 µM
SCLC-21H; Homo sapiens, SCLC-21H
  IC50: 12.2 µM
UACC-893; Homo sapiens, UACC-893
  IC50: 2.86 µM
SR; Homo sapiens, SR
  IC50: < 0.0625 µM
LCLC-103H cell line; Homo sapiens, LCLC-103H
  IC50: 0.185 µM
639-V; Homo sapiens, 639-V
  IC50: 0.156 µM
SW1088; Homo sapiens, SW1088
  IC50: 2.78 µM
NCI-H2081; Homo sapiens, NCI-H2081
  IC50: 0.781 µM
A204; Homo sapiens, A204
  IC50: 1.6 µM
THP-1; Homo sapiens, THP-1
  IC50: 0.02 µM
K052; Homo sapiens, K052
  IC50: 0.94 µM
HT-29; Homo sapiens, HT-29
  IC50: 0.0449 µM
U2OS; Homo sapiens, U2OS
  IC50: > 16 µM
SW1417; Homo sapiens, SW1417
  IC50: < 0.0625 µM
MRK-nu-1; Homo sapiens, MRK-nu-1
  IC50: 0.0494 µM
SW756; Homo sapiens, SW756
  IC50: 0.0382 µM
NCI-H2342; Homo sapiens, NCI-H2342
  IC50: 0.0512 µM
SW13; Homo sapiens, SW13
  IC50: 0.406 µM
GP5d; Homo sapiens, GP5d
  IC50: 0.225 µM
PC-3; Homo sapiens, PC-3
  IC50: 1.75 µM
KMS-12-PE; Homo sapiens, KMS-12-PE
  IC50: 5.35 µM
NCI-H28; Homo sapiens, NCI-H28
  IC50: 0.741 µM
COR-L105; Homo sapiens, COR-L105
  IC50: 0.322 µM
NCI-H1793; Homo sapiens, NCI-H1793
  IC50: > 16 µM
SJRH30; Homo sapiens, SJRH30
  IC50: 0.321 µM
BHY; Homo sapiens, BHY
  IC50: < 0.0625 µM
CAL-62; Homo sapiens, CAL-62
  IC50: 0.026 µM
IMR-5; Homo sapiens, IMR-5
  IC50: 0.0324 µM
NCI-H2227; Homo sapiens, NCI-H2227
  IC50: > 16 µM
NCI-H1651; Homo sapiens, NCI-H1651
  IC50: 0.497 µM
LC-1F; Homo sapiens, LC-1F
  IC50: 3.72 µM
Ca9-22; Homo sapiens, Ca9-22
  IC50: 0.111 µM
CAL-33; Homo sapiens, CAL-33
  IC50: 0.508 µM
8505C; Homo sapiens, 8505C
  IC50: 0.0304 µM
CAL-51; Homo sapiens, CAL-51
  IC50: 40 nM
CWR22R; Homo sapiens, 22Rv1
  IC50: 0.274 µM
COR-L279; Homo sapiens, COR-L279
  IC50: 0.572 µM
NCI-H345; Homo sapiens, NCI-H345
  IC50: > 16 µM
NCI-H358; Homo sapiens, NCI-H358
  IC50: 0.0788 µM
SK-MEL-30; Homo sapiens, SK-MEL-30
  IC50: < 0.0625 µM
EB-3; Homo sapiens, EB-3
  IC50: 0.173 µM
HT-3; Homo sapiens, HT-3
  IC50: 1.31 µM
TALL-1; Homo sapiens, TALL-1
  IC50: > 16 µM
NCI-H661; Homo sapiens, NCI-H661
  IC50: 1.3 µM

## BLEOMYCIN
M14; m14
  IC50: 3.22 µM
SNU-387; snu-387
  IC50: 0.925 µM
SCLC-21H; sclc-21h
  IC50: 577 µM
UACC-893; uacc-893
  IC50: 130 µM
SR; sr
  IC50: 0.0297 µM
LCLC-103H cell line; lclc-103h
  IC50: 0.144 µM
639-V; 639-v
  IC50: 0.22 µM
SW1088; sw1088
  IC50: 818 µM
NCI-H2081; nci-h2081
  IC50: 221 µM
A204; a204
  IC50: 0.2 µM
THP-1; thp-1
  IC50: 92.5 µM
K052; k052
  IC50: 482 µM
HT-29; ht-29
  IC50: 0.535 µM
U2OS; u-2-os
  IC50: 265 µM
SW1417; sw1417
  IC50: 249 µM
MRK-nu-1; mrk-nu-1
  IC50: 1.45 µM
SW756; sw756
  IC50: 11.4 µM
NCI-H2342; nci-h2342
  IC50: 0.0138 µM
SW13; sw13
  IC50: 0.0816 µM
GP5d; gp5d
  IC50: 15.6 µM
PC-3; pc-3
  IC50: 13.3 µM
KMS-12-PE; kms-12-pe
  IC50: 2530 µM
NCI-H28; nci-h28
  IC50: 2.74 µM
COR-L105; cor-l105
  IC50: 7.37 µM
NCI-H1793; nci-h1793
  IC50: 27.2 µM
SJRH30; sjrh30
  IC50: 0.414 µM
BHY; bhy
  IC50: 1.83 µM
CAL-62; cal-62
  IC50: 3.34 µM
IMR-5; imr-5
  IC50: 0.137 µM
NCI-H2227; nci-h2227
  IC50: 721 µM
NCI-H1651; nci-h1651
  IC50: 0.505 µM
LC-1F; lc-1f
  IC50: 49.4 µM
Ca9-22; ca9-22
  IC50: 0.746 µM
CAL-33; cal-33
  IC50: 2.15 µM
8505C; 8505c
  IC50: 1.04 µM
CAL-51; cal-51
  IC50: 0.099 nM
CWR22R; cwr22r
  IC50: 7.33 µM
COR-L279; cor-l279
  IC50: 25.4 µM
NCI-H345; nci-h345
  IC50: 814 µM
NCI-H358; nci-h358
  IC50: 0.373 µM
SK-MEL-30; sk-mel-30
  IC50: 0.377 µM
EB-3; eb-3
  IC50: 21.8 µM
HT-3; ht-3
  IC50: 5.78 µM
TALL-1; tall-1
  IC50: 244 µM
NCI-H661; nci-h661
  IC50: 2.79 µM

From ChEMBL document CHEMBL1201861, “Genomics of Drug Sensitity in Cancer screening data, Wellcome Trust Sanger Institute”
